Results on four compounds are retold here after patent US20250222128A1, “ANTIBODY DRUG-CONJUGATES TARGETING C-MET AND METHODS OF USE THEREOF” (Zymeworks BC Inc., priority 2022, published 2025).

Like-named read-outs stand apart in the source and are kept apart here.

One assay has as its system H292 (lung carcinoma). Put plainly: In vitro cytotoxicity (cell growth inhibition, CellTiter-Glo). The class given is cell-based. How it is done: (§1) The cell growth inhibition (cytotoxicity) capabilities of anti-cMet ADCs comprising variant v17427 (HetFc, unmodified hinge) conjugated to Drug-Linker 001 or MCvcPABC-MMAE by stochastic cysteine conjugation at an average DAR 4 were determined in a panel of four cMet-expressing cell lines as described below. The cell lines were EBC-1 (lung squamous cell carcinoma), H292 (lung carcinoma), BT-20 (breast cancer) and SW48 (colorectal cancer).
(§2) Briefly, cells were seeded in 384-well plates at 1,000-1,500 cells/well density and treated with a titration of test article, generated in complete cell growth medium. Treated cells were incubated for 4-5 days under standard culturing conditions (37° C./5% CO2). After incubation, CellTiter-Glo® reagent (Promega Corporation, Madison, WI; Cat. No. G7570) was spiked into each well and luminescence corresponding to ATP present in each well was measured using a Synergy™ H1 microplate (BioTek Instruments, Winooski, VT). Based on blank wells (no test article added, only blank media), % cytotoxicity values were calculated using ATP measurement RLU values (Relative Light Units) and plotted against test article concentration using GraphPad Prism 8 software (GraphPad Software, San Diego, CA).
(§3) Cytotoxicity was determined as described in Example 6 with treated cells (1,000 cells/well) being incubated for 4 days under standard culturing conditions (37° C./5% CO2).
(§4) The cell growth inhibition capabilities of ADCs comprising anti-cMet antibodies with either a HomoFc or HetFc backbone (v32634 and v17427, respectively) conjugated to Drug-Linker 002 by stochastic lysine conjugation at approximately DAR 4 and DAR 6 were assessed in a panel of four cMet-expressing tumour cell lines and one cMet-negative cell line. The anti-RSV antibody, palivizumab (v22277), conjugated to Drug-Linker 002 at DAR 3.7, and free payload (Compound 1), were used as controls. Cytotoxicity was determined as described in Example 8. Cell lines were SNU-5 (gastric carcinoma), EBC-1 (lung squamous cell carcinoma), H1975 (non-small cell lung cancer), H292 (lung carcinoma) and cMet-negative T-47D (breast cancer).
(§5) The cell growth inhibition capabilities of site-specific cysteine-conjugated ADCs comprising various cysteine insertion antibody variants conjugated to Drug-Linker 001 at approximately DAR 1, 2 or 3, were assessed in a panel of four cMet-expressing tumour cell lines, SNU-5 (gastric carcinoma), EBC-1 (lung squamous cell carcinoma), H292 (lung carcinoma) and H1975 (non-small cell lung cancer), and one cMet-negative cell line, T-47D (breast carcinoma). An ADC comprising the anti-RSV antibody palivizumab (v22277) conjugated to Drug-Linker 001 at approximately DAR 4 was used as a non-targeted control. […] Cytotoxicity was determined as described in Example 7.
(§6) The cell growth inhibition capabilities of ADCs comprising variant v29001, having two cysteine insertions, conjugated to multivalent Drug-Linker 003 or multivalent Drug-Linker 004, were assessed in a panel of cMet-expressing tumour cell lines together with ADCs comprising parental variant v17427 conjugated to the monovalent Drug-Linker 002 at DAR 4 or DAR 6. Cell lines used were SNU-5 (gastric carcinoma), EBC-1 (lung squamous cell carcinoma), H292 (lung carcinoma), H1975 (non-small cell lung cancer) and T-47D (breast carcinoma, cMet-negative). ADCs comprising the anti-RSV antibody palivizumab (v22277) conjugated to Drug-Linker 002 were used as non-targeted controls. Free payload Compound 1 was also included as a control. Cytotoxicity was determined as described in Example 8.
(In general: ATP-based viability assays read luminescence as a measure of living cells.)

The test system of assay [1] is EBC-1 (lung squamous cell carcinoma). Described as above. The format is cell-based. How it is done:
as §1, §2, §3, §4, §5, §6

Assay [2] concerns cMet-negative T-47D (breast cancer). The assay is described as above. The class given is cell-based. The note with it: Homo sapiens, T47D, 96 h. As for the experimental part: as §2, §3
The cell growth inhibition capabilities of ADCs comprising anti-cMet antibodies with either a HomoFc or HetFc backbone (v32634 and v17427, respectively) conjugated to Drug-Linker 002 by stochastic lysine conjugation at approximately DAR 4 and DAR 6 were assessed in a panel of four cMet-expressing tumour cell lines and one cMet-negative cell line. […] Cytotoxicity was determined as described in Example 8. […]

Assay [3] concerns H1975 (non-small cell lung cancer). Described as above. The class given is cell-based. How it is done:
as §2
(§7) The cell growth inhibition capabilities of anti-cMet ADCs comprising variant v17427 (HetFc, unmodified hinge) conjugated to Drug-Linker 002 by stochastic lysine conjugation at DARs ranging from DAR 2 to DAR 6 were determined in a panel of seven cMet-expressing cell lines. Variant v17427 conjugated to MCvcPABC-MMAE drug linker at DAR 4, and anti-RSV antibody, palivizumab (v22277), conjugated to Drug-Linker 002 or MCvcPABC-MMAE at DAR 4, were used as controls. Cell lines were SNU-5 (gastric carcinoma), EBC-1 (lung squamous cell carcinoma), HCC827 (lung cancer), H1975 (non-small cell lung cancer), HCT-116 (colorectal cancer), H292 (lung carcinoma) and BT-20 (breast cancer).
as §3, §4, §6

The subject of assay [4] is SNU-5 (gastric carcinoma). Described as above. The format is cell-based. As to conditions: 4 days. How it is done: as §2, §7, §3, §4, §6
A further assay relates to BT-20 (breast cancer). Described as above. The class given is cell-based. As for the experimental part:
as §1
as §2, with “CA). […]” for “CA).”
as §3

Another assay relates to SW48 (colorectal cancer). Described as above. The format is cell-based. The note with it: Homo sapiens, 4-5 days, Table 6.1, read-out: EC50 (nM) - DAR corrected. How it is done:
as §1, §2

For a further assay, the system named is HCC827 (lung cancer). The description is as above. The class given is cell-based. The note with it: 4 days, Table 8.1. How it is done: as §2
(§8) The cell growth inhibition capabilities of anti-cMet ADCs comprising variant v17427 (HetFc, unmodified hinge) conjugated to Drug-Linker 002 by stochastic lysine conjugation at DARs ranging from DAR 2 to DAR 6 were determined in a panel of seven cMet-expressing cell lines. […]
as §3

Assay [5] deals with HCT-116 (colorectal cancer). Described as above. The format is cell-based. The note with it: 4 days, Table 8.1. How it is done: as §2, §8, §3
In assay [6] the test system is cMet-positive non-small cell lung carcinoma (NSCLC). As to conditions: Phase II trials; cited from earlier work.
In assay [7] the target is T1, cMet on H292 endogenous cMet-expressing cell line (Homo sapiens, UniProt P08581).
T1 construct: SNU-5 and H292 endogenous cMet-expressing cell lines; endogenous in cells; host or cells: H292
T1 sequence (P08581 25-1390): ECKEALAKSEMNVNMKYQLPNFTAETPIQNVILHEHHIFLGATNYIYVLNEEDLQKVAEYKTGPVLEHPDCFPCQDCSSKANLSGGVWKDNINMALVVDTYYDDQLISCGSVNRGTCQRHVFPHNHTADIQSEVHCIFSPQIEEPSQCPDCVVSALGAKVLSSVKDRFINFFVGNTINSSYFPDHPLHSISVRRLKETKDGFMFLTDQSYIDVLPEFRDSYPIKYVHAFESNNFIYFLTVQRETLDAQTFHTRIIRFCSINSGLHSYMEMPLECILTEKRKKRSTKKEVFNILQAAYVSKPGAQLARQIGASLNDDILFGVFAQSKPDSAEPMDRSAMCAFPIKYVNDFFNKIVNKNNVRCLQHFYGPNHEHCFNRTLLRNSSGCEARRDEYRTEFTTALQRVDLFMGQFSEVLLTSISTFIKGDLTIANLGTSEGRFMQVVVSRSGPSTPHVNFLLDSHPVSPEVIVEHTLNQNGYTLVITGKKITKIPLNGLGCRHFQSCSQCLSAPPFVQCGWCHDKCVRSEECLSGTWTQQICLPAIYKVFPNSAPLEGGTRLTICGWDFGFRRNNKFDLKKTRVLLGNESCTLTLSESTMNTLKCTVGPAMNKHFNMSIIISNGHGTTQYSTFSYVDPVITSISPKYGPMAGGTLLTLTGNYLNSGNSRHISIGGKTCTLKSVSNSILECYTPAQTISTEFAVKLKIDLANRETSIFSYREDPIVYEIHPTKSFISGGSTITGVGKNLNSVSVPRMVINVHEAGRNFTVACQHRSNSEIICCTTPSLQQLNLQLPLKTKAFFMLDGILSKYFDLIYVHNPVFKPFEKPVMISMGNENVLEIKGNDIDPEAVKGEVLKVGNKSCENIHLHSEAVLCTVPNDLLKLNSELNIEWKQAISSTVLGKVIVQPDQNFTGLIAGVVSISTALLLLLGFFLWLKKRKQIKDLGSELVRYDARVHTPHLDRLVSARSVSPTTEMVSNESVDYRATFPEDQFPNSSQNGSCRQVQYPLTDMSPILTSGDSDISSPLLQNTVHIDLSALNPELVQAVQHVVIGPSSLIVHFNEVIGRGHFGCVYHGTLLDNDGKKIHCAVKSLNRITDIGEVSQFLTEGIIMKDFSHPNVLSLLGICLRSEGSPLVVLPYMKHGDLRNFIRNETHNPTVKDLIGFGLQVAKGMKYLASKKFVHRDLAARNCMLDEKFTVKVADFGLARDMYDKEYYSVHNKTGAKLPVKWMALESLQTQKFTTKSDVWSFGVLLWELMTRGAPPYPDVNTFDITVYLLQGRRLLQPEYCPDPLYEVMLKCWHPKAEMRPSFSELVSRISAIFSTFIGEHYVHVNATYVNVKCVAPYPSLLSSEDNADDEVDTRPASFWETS
In words: Cellular equilibrium binding by flow cytometry. How it is done: (§9) The on-cell binding capabilities of ADCs comprising anti-cMet antibodies with either a HomoFc or HetFc backbone (v32634 and v17427, respectively) conjugated to Drug-Linker 002 by stochastic lysine conjugation at approximately DAR 4 and DAR 6 were assessed for cMet binding using SNU-5 and H292 endogenous cMet-expressing cell lines by flow cytometry as described below. Unconjugated anti-RSV antibody palivizumab (v22277) was used as a control.
(§10) Briefly, cells were seeded at 50,000 cells/well in V-bottom 96-well plates and treated with antibody for 24 hours at 4° C. to prevent internalization. Following incubation, cells were washed and stained with anti-human IgG Fc AF647 conjugate (Jackson ImmunoResearch Laboratories, Inc., West Grove, PA; Cat. No. 109-605-098) at 4° C. for 30 min. Following incubation and washing, fluorescence was detected by flow cytometry on a BD LSRFortessa™ Cell Analyzer (BD Biosciences, Franklin Lake, NJ) with 1,000 minimum events collected per well. AF647/APC-A GeoMean (fluorescence signal geometric mean, proportional to anti-Human AF647 binding) in live cell population was plotted using GraphPad Prism Version 8 (GraphPad Software, San Diego, CA).
(§11) The on-cell binding capabilities of the following unconjugated antibodies and ADCs were assessed on SNU-5 and H292 endogenous cMet-expressing cell lines by flow cytometry: unconjugated variant v17427 (HetFc, unmodified hinge), and cysteine insertion variant v29001 (two cysteine insertions), lysine conjugated ADCs comprising variant v17427 and Drug-Linker 002 at DAR 4 or DAR 6, and cysteine conjugated ADCs comprising cysteine insertion variant insertion v29001 conjugated to Drug-Linker 001, Drug-Linker 003 or Drug-Linker 004 at DAR 2, 4 or 6, respectively. […] Cellular binding was determined as described in Example 10.
For orientation: A flow cytometer gives signals particle by particle.

In assay [8] the target is T2, cMet on SNU-5 endogenous cMet-expressing cell line (Homo sapiens, UniProt P08581).
T2 construct: SNU-5 and H292 endogenous cMet-expressing cell lines; endogenous in cells; host or cells: SNU-5
T2 sequence (P08581 25-1390): as above
In words: Cellular equilibrium binding by flow cytometry. How it is done: as §9, §10, §11

In a further assay the test system is EBC-1. Put plainly: Receptor-mediated internalization, high content imaging. The format is cell-based. As to conditions: 5 Hours 37° C.
A further assay concerns HT-29. Described as above. The format is cell-based. The note with it: 5 Hours 37° C.
The mark [9] stands for this setting: 24 hours at 4° C., Table 10.1, read-out: Apparent Kd.
The mark [10] stands for this setting: Table 13.1, read-out: Apparent Kd.

As a reminder, the EC50 is the concentration needed to bring the measured effect to its halfway point. Take `CC[C@H](C)[C@@H]([C@@H](CC(=O)N1CCC[C@H]1[C@H](OC)[C@@H](C)C(=O)NS(=O)(=O)c1ccc(N)cc1)OC)N(C)C(=O)[C@@H](NC(=O)[C@H](C(C)C)N(C)C)C(C)C` [Compound 1, (S)-N-((3R,4S,5S)-1-((S)-2-((1R,2R)-3-((4-aminophenyl)sulfonamido)-1-methoxy-2-methyl-3-oxopropyl)pyrrolidin-1-yl)-3-methoxy-5-methyl-1-oxoheptan-4-yl)-2-((S)-2-(dimethylamino)-3-methylbutanamido)-N,3-dimethylbutanamide]: the EC50 with H292 (lung carcinoma) (Homo sapiens, NCI-H292, 96 h, H292, 4 days, Table 9.1) was 7.42 nM; in the assay on H292 (lung carcinoma) (Homo sapiens, NCI-H292, 96 h, H292, 4 days, Table 12.1), 7.42 nM; in the assay on H292 (lung carcinoma) (Homo sapiens, NCI-H292, read-out: EC50 (nM) - DAR corrected, H292, 4-5 days, Table 6.1) it was 22.2 nM; in [1] (Homo sapiens, EBC-1, 96 h) it was 26.3 nM; in assay [1] (Homo sapiens, EBC-1, read-out: EC50 (nM) - DAR corrected), 44.4 nM; in assay [2] it was 44.8 nM. Further, the EC50 in assay [3] (Homo sapiens, NCI-H1975, 96 h) turned out to be 22.7 nM; in [4] (Homo sapiens, SNU-5, 96 h, Table 9.1) it was 40 nM; in assay [4] (Homo sapiens, SNU-5, 96 h, Table 12.1), 40.1 nM; in the assay with BT-20 (breast cancer) (Homo sapiens, BT-20, read-out: EC50 (nM) - DAR corrected), 39.2 nM; in the assay with SW48 (colorectal cancer) it was 43.6 nM.
For “V22277-MCvcPABC-MMAE DAR 4.0: palivizumab (v22277) conjugated to MCvcPABC-MMAE at DAR 4, control [reference compound]”, the concentration for a half-maximal effect (EC50) in the assay with H292 (lung carcinoma) (H292, 4 days, Table 8.1, read-out: EC50) is greater than 10 nM; in [1] (EBC-1, 4 days, Table 8.1, read-out: EC50) it was greater than 10 nM; in the assay on HCC827 (lung cancer), greater than 10 nM; in assay [5], greater than 10 nM; in assay [3] (H1975, 4 days, Table 8.1, read-out: EC50), greater than 10 nM; in assay [4] (Table 8.1, read-out: EC50) it was greater than 10 nM. The 50% effective concentration (EC50) with BT-20 (breast cancer) (BT-20, 4 days, Table 8.1, read-out: EC50) is greater than 10 nM.
As to telisotuzumab vedotin, the anti-tumour activity result in [6] is recorded as “anti-tumour activity”.
On to “v22277: anti-RSV antibody, palivizumab, non-targeted control [reference compound]”, for which the Kd in assay [7] (setting [9]), in assay [7] (setting [10]), in [8] (setting [9]) and in assay [8] (setting [10]) was greater than 50 nM in each case. Besides, the “Mean Object Fluorescence (Internalized)” value is listed as 2,686 with EBC-1 (0.3 nM); 3,054 in the assay on EBC-1 (1.9 nM); 1,989 in the assay on EBC-1 (12 nM); 2,605 with EBC-1 (70 nM); 2,746 in the assay on HT-29 (0.3 nM); 2,363 in the assay with HT-29 (1.9 nM). The “Mean Object Fluorescence (Internalized)” value in the assay on HT-29 (12 nM) was 2,331; in the assay on HT-29 (70 nM), 2,290.
